Results as given in ChEMBL document CHEMBL1201862, “PubChem BioAssay data set” (2004).
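Exposure lasted 48 hours, with cells grown in 96-well plates and compounds tested at five concentrations. GI50 is the concentration that inhibits growth by half.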 The source made the active and inactive calls. Cut-off read from the data, not from the text of the source: active = GI50 up to about 1.1 µM and inactive = higher.

Tests used:
Assay in all cases: NCI-60 cell line screen, 48 h
[1] = tested on: 786-0
[2] = tested on: A498
[3] = tested on: A549
[4] = tested on: ACHN
[5] = tested on: DU-145
[6] = tested on: HCC 2998
[7] = tested on: HT-29
[8] = tested on: IGROV-1
[9] = tested on: MDA-MB-435
[10] = tested on: Malme-3M
[11] = tested on: NCI-H23
[12] = tested on: NCI-H522
[13] = tested on: OVCAR-4
[14] = tested on: PC-3
[15] = tested on: RPMI-8226
[16] = tested on: RXF 393
[17] = tested on: SK-MEL-2
[18] = tested on: SK-MEL-5
[19] = tested on: TK-10
[20] = tested on: UACC-257

CCC1c2[nH]c3ccccc3c2C[C@H]2C(=O)NC(C)C(=O)N12 (some centres not stated)
GI50 [1]: > 100 µM (inactive)
GI50 [2]: > 100 µM (inactive)
GI50 [3]: > 100 µM (inactive)
GI50 [4]: > 100 µM (inactive)
GI50 [5]: > 100 µM (inactive)
GI50 [6]: > 100 µM (inactive)
GI50 [7]: > 100 µM (inactive)
GI50 [8]: > 100 µM (inactive)
GI50 [9]: > 100 µM (inactive)
GI50 [10]: > 100 µM (inactive)
GI50 [11]: > 100 µM (inactive)
GI50 [12]: > 100 µM (inactive)
GI50 [13]: > 100 µM (inactive)
GI50 [14]: > 100 µM (inactive)
GI50 [15]: > 100 µM (inactive)
GI50 [16]: > 100 µM (inactive)
GI50 [17]: > 100 µM (inactive)
GI50 [18]: > 100 µM (inactive)
GI50 [19]: > 100 µM (inactive)
GI50 [20]: > 100 µM (inactive)

CC(C)[Si](OC/C(=C/COC(C)(C)C)[C@H]1CC=C(C(=O)c2ccccc2N2CN(C)C(=O)N(C)C2)C1)(C(C)C)C(C)C
GI50 [1]: 6.61 µM (inactive)
GI50 [2]: 19.7 µM (inactive)
GI50 [3]: 9.53 µM (inactive)
GI50 [4]: 14.7 µM (inactive)
GI50 [5]: 13.5 µM (inactive)
GI50 [6]: 12.4 µM (inactive)
GI50 [7]: 5.75 µM (inactive)
GI50 [8]: 12.1 µM (inactive)
GI50 [9]: 6.04 µM (inactive)
GI50 [10]: 7.94 µM (inactive)
GI50 [11]: 15.2 µM (inactive)
GI50 [12]: 7.41 µM (inactive)
GI50 [13]: 13.8 µM (inactive)
GI50 [14]: 5.6 µM (inactive)
GI50 [15]: 6.05 µM (inactive)
GI50 [16]: 4.02 µM (inactive)
GI50 [17]: 13.6 µM (inactive)
GI50 [18]: 9.95 µM (inactive)
GI50 [19]: 10.1 µM (inactive)
GI50 [20]: 6.28 µM (inactive)

Fc1ccc(Oc2nc3ccccc3nc2-c2ccccc2)cc1
GI50 [1]: 80 µM (inactive)
GI50 [2]: > 100 µM (inactive)
GI50 [4]: > 100 µM (inactive)
GI50 [5]: > 100 µM (inactive)
GI50 [6]: > 100 µM (inactive)
GI50 [7]: > 100 µM (inactive)
GI50 [8]: > 100 µM (inactive)
GI50 [9]: > 100 µM (inactive)
GI50 [10]: > 100 µM (inactive)
GI50 [11]: 42.5 µM (inactive)
GI50 [12]: 71.8 µM (inactive)
GI50 [13]: 36.5 µM (inactive)
GI50 [14]: > 100 µM (inactive)
GI50 [15]: 81.7 µM (inactive)
GI50 [16]: 37.2 µM (inactive)
GI50 [17]: > 100 µM (inactive)
GI50 [18]: > 100 µM (inactive)
GI50 [19]: > 100 µM (inactive)
GI50 [20]: > 100 µM (inactive)

CC(=O)OCC1OC(n2c3c(cc(C#N)c2=S)CCCCC3)C(OC(C)=O)C(OC(C)=O)C1OC(C)=O (configuration not stated)
GI50 [1]: > 100 µM (inactive)
GI50 [2]: > 100 µM (inactive)
GI50 [3]: > 100 µM (inactive)
GI50 [4]: > 100 µM (inactive)
GI50 [5]: > 100 µM (inactive)
GI50 [6]: > 100 µM (inactive)
GI50 [7]: > 100 µM (inactive)
GI50 [8]: > 100 µM (inactive)
GI50 [9]: > 100 µM (inactive)
GI50 [10]: > 100 µM (inactive)
GI50 [11]: > 100 µM (inactive)
GI50 [12]: > 100 µM (inactive)
GI50 [13]: > 100 µM (inactive)
GI50 [14]: > 100 µM (inactive)
GI50 [15]: > 100 µM (inactive)
GI50 [16]: > 100 µM (inactive)
GI50 [17]: > 100 µM (inactive)
GI50 [18]: > 100 µM (inactive)
GI50 [19]: > 100 µM (inactive)
GI50 [20]: > 100 µM (inactive)

C[C@H]1CC[C@@H]2[C@@H](C)[C@H]3[C@H](C[C@H]4[C@@H]5CC=C6C[C@@H](O)CC[C@]6(C)[C@H]5CC[C@]34C)N2C1
GI50 [1]: 30.4 µM (inactive)
GI50 [2]: 13.6 µM (inactive)
GI50 [3]: > 100 µM (inactive)
GI50 [4]: 59.8 µM (inactive)
GI50 [5]: > 100 µM (inactive)
GI50 [6]: 97.1 µM (inactive)
GI50 [7]: 18.6 µM (inactive)
GI50 [8]: 27.9 µM (inactive)
GI50 [9]: 89.7 µM (inactive)
GI50 [10]: > 100 µM (inactive)
GI50 [11]: 88.5 µM (inactive)
GI50 [12]: 42.6 µM (inactive)
GI50 [13]: 32.4 µM (inactive)
GI50 [14]: 50.9 µM (inactive)
GI50 [15]: 26.3 µM (inactive)
GI50 [16]: 19.4 µM (inactive)
GI50 [17]: > 100 µM (inactive)
GI50 [18]: 38.3 µM (inactive)
GI50 [19]: 33 µM (inactive)
GI50 [20]: 45.1 µM (inactive)

Cc1c(-c2ccccc2)c(C#N)c2nnn(-c3cccc(Cl)c3)c(=O)n12
GI50 [1]: 28.6 µM (inactive)
GI50 [2]: 26.2 µM (inactive)
GI50 [4]: 53.2 µM (inactive)
GI50 [5]: 68.9 µM (inactive)
GI50 [6]: 78.7 µM (inactive)
GI50 [7]: 30.8 µM (inactive)
GI50 [8]: 54.8 µM (inactive)
GI50 [9]: > 100 µM (inactive)
GI50 [10]: 87.5 µM (inactive)
GI50 [11]: > 100 µM (inactive)
GI50 [12]: 47.8 µM (inactive)
GI50 [13]: 76.2 µM (inactive)
GI50 [14]: 26.5 µM (inactive)
GI50 [15]: 42.5 µM (inactive)
GI50 [16]: 31.2 µM (inactive)
GI50 [17]: 27.7 µM (inactive)
GI50 [18]: 71.1 µM (inactive)
GI50 [19]: > 100 µM (inactive)
GI50 [20]: > 100 µM (inactive)

Cc1nc(Cl)c2sc(=S)n(-c3ccc(F)cc3)c2n1
GI50 [1]: 2.45 µM (inactive)
GI50 [2]: 1.58 µM (inactive)
GI50 [3]: 12.8 µM (inactive)
GI50 [4]: 13.9 µM (inactive)
GI50 [5]: 1.51 µM (inactive)
GI50 [6]: 4.49 µM (inactive)
GI50 [7]: 2.28 µM (inactive)
GI50 [8]: 1.74 µM (inactive)
GI50 [9]: 2.59 µM (inactive)
GI50 [10]: 10.6 µM (inactive)
GI50 [11]: 1.27 µM (inactive)
GI50 [12]: 2.84 µM (inactive)
GI50 [13]: 13.6 µM (inactive)
GI50 [14]: 19.9 µM (inactive)
GI50 [15]: 3.4 µM (inactive)
GI50 [16]: 7.85 µM (inactive)
GI50 [17]: 12.8 µM (inactive)
GI50 [18]: 3.04 µM (inactive)
GI50 [19]: 1.99 µM (inactive)
GI50 [20]: 2.54 µM (inactive)

O=[N+]([O-])c1sc2ccc(Cl)cc2c1Nc1ccc(Cl)cc1
GI50 [1]: > 100 µM (inactive)
GI50 [2]: > 100 µM (inactive)
GI50 [3]: > 100 µM (inactive)
GI50 [4]: > 100 µM (inactive)
GI50 [5]: > 100 µM (inactive)
GI50 [6]: > 100 µM (inactive)
GI50 [7]: > 100 µM (inactive)
GI50 [8]: > 100 µM (inactive)
GI50 [9]: > 100 µM (inactive)
GI50 [10]: > 100 µM (inactive)
GI50 [11]: > 100 µM (inactive)
GI50 [12]: > 100 µM (inactive)
GI50 [13]: 2.55 µM (inactive)
GI50 [14]: > 100 µM (inactive)
GI50 [15]: > 100 µM (inactive)
GI50 [16]: > 100 µM (inactive)
GI50 [17]: > 100 µM (inactive)
GI50 [18]: > 100 µM (inactive)
GI50 [19]: > 100 µM (inactive)

C/C1=C/C2OC(=O)C3(C)C2C(CC2(C)OC1=CC2=O)OC3(O)C(C)C (configuration not stated)
GI50 [1]: 26.1 µM (inactive)
GI50 [2]: 73.8 µM (inactive)
GI50 [3]: > 56 µM (inactive)
GI50 [4]: 33.9 µM (inactive)
GI50 [5]: 59.8 µM (inactive)
GI50 [6]: 20.9 µM (inactive)
GI50 [7]: 28.3 µM (inactive)
GI50 [8]: 35.3 µM (inactive)
GI50 [9]: 38.3 µM (inactive)
GI50 [10]: 33.5 µM (inactive)
GI50 [11]: 15 µM (inactive)
GI50 [12]: 14.8 µM (inactive)
GI50 [13]: 25.1 µM (inactive)
GI50 [14]: 40.8 µM (inactive)
GI50 [15]: 21.8 µM (inactive)
GI50 [16]: > 37.4 µM (inactive)
GI50 [17]: 29.4 µM (inactive)
GI50 [18]: 23.6 µM (inactive)
GI50 [19]: 41.5 µM (inactive)
GI50 [20]: 26.9 µM (inactive)

CC(C)(C)c1ccc(-c2nnc(-c3cc(C#N)cc(-c4nnc(-c5ccc(C(C)(C)C)cc5)o4)c3)o2)cc1
GI50 [1]: 50.2 µM (inactive)
GI50 [2]: > 100 µM (inactive)
GI50 [3]: > 100 µM (inactive)
GI50 [4]: > 100 µM (inactive)
GI50 [5]: > 100 µM (inactive)
GI50 [6]: > 100 µM (inactive)
GI50 [7]: > 100 µM (inactive)
GI50 [8]: > 100 µM (inactive)
GI50 [9]: > 100 µM (inactive)
GI50 [10]: > 100 µM (inactive)
GI50 [11]: > 100 µM (inactive)
GI50 [12]: > 100 µM (inactive)
GI50 [13]: > 100 µM (inactive)
GI50 [14]: > 100 µM (inactive)
GI50 [15]: > 100 µM (inactive)
GI50 [16]: 0.0107 µM (active)
GI50 [17]: > 100 µM (inactive)
GI50 [18]: > 100 µM (inactive)
GI50 [19]: > 100 µM (inactive)
GI50 [20]: > 100 µM (inactive)
